Source: BindingDB's records for PubMed 32485533 (Isf College of Pharmacy, 2020)

Assay: Inhibition of human recombinant sPLA2-V at 1 uM

IC50: 3.22 µM
Structure (SMILES): COc1ccc(-c2nc3c(C(N)=O)cccc3[nH]2)cc1 [2-(4-methoxyphenyl)-1H-1,3-benzodiazole-4-carboxamide]
